Measurements from patent publication US20240246977A1, “DEGRADATION OF BRUTON'S TYROSINE KINASE (BTK) BY CONJUGATION OF BTK INHIBITORS WITH E3 LIGASE LIGAND AND METHOD OF USE” (BeiGene Switzerland GmbH, priority 2021, published 2024).
Where two headings read alike, the source gives them in different places.

What was measured:
[1] = test system: HEK-293 cells; assay: HEK-293 cytotoxicity detection (CellTiter-Glo); type: cell-based; conditions: 72 h incubation, CellTiter-Glo luminescence, read-out: HEK293
In short: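 HEK-293 cells exposed 72 h to 8 compounds doses (4-fold dilutions, top stock 5 mM at 500×) in 0.2% DMSO. Viability by CellTiter-Glo luminescence; inhibition normalised to DMSO high control and low control, IC50 from four-parameter curve fit.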

[2] = target: BTK (Homo sapiens, UniProt Q06187); assay: BTK cell degradation in TMD-8 cells, HTRF assay; type: cell-based; set-up: endogenous in cells; host or cells: TMD-8 cells; conditions: 6 h treatment, IC50 (DC50) of BTK degradation
In short: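 TMD-8 cells treated 6 h with 8-dose series (6-fold dilutions, 0.2% DMSO final), then lysed and BTK quantified by HTRF (337/665/620 nm) after overnight antibody incubation at room temperature. Degradation normalized to DMSO high and low controls; DC50 and Dmax from four-parameter fit.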

BTK, sequence (Q06187 whole entry): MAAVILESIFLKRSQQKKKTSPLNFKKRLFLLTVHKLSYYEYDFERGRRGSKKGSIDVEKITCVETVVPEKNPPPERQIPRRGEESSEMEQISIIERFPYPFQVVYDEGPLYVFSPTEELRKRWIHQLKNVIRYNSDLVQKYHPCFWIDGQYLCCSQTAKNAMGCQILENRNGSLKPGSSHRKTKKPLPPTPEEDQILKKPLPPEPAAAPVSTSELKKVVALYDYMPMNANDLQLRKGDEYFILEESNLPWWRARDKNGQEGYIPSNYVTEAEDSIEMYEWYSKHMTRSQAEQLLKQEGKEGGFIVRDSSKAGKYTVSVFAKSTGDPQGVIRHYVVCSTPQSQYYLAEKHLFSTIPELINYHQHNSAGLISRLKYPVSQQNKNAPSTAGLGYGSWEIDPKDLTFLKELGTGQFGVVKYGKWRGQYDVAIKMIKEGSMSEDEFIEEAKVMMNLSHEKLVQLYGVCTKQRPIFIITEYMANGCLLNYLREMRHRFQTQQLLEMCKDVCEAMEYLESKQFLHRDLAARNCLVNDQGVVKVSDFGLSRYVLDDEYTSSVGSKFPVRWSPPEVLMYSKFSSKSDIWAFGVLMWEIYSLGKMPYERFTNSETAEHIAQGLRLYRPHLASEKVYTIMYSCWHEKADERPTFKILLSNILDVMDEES

| DC50 [2] | Compound | IC50 ([1]; Homo sapiens, 72 h) | IC50 [1] |
| --- | --- | --- | --- |
| 1.12 nM | NC(=O)c1c(-c2ccc(OCc3ccccc3)cc2)nn2c1Nc1ccc(N3CCN(CC4CCN(c5ccc(N6CCC(=O)NC6=O)cc5)CC4)CC3)cc1CC2 [Example A38, 2-(4-(benzyloxy)phenyl)-7-(4-((1-(4-(2,4-dioxotetrahydropyrimidin-1(2H)-yl)phenyl)piperidin-4-yl)methyl)piperazin-1-yl)-9,10-dihydro-4H-benzo[d]pyrazolo[1,5-a][1,3]diazepine-3-carboxamide] | 185 nM | – |
| 2.26 nM | NC(=O)c1c(-c2ccc(Oc3ccccc3)cc2)nn2c1Nc1ccc(C(=O)NC3CCN(c4ccc5c(c4)C(=O)N(C4CCC(=O)NC4=O)C5=O)CC3)cc1CC2 (stereo not shown) [Example A9, N7-(1-(2-(2,6-dioxopiperidin-3-yl)-1,3-dioxoisoindolin-5-yl)piperidin-4-yl)-2-(4-phenoxyphenyl)-9,10-dihydro-4H-benzo[d]pyrazolo[1,5-a][1,3]diazepine-3,7-dicarboxamide] | 65.6 nM | – |
| 0.561 nM | NC(=O)c1c(-c2ccc(C(=O)Nc3cc(C(F)(F)F)ccn3)cc2)nn2c1Nc1ccc(N3CCN(CC4CCN(c5ccc(N6CCC(=O)NC6=O)cc5)CC4)CC3)cc1CC2 [Example B1, 7-(4-((1-(4-(2,4-dioxotetrahydropyrimidin-1(2H)-yl)phenyl)piperidin-4-yl)methyl)piperazin-1-yl)-2-(4-((4-(trifluoromethyl)pyridin-2-yl)carbamoyl)phenyl)-9,10-dihydro-4H-benzo[d]pyrazolo[1,5-a][1,3]diazepine-3-carboxamide] | – | > 10000 nM |
| 13.5 nM | Cc1c(C(=O)Nc2cc(N3CCCC3)ccn2)ccc(-c2nn3c(c2C(N)=O)Nc2ccc(N4CCN(CC5CCN(c6ccc(N7CCC(=O)NC7=O)cc6)CC5)CC4)cc2CC3)c1F [Example B49, 7-(4-((1-(4-(2,4-dioxotetrahydropyrimidin-1(2H)-yl)phenyl)piperidin-4-yl)methyl)piperazin-1-yl)-2-(2-fluoro-3-methyl-4-((4-(pyrrolidin-1-yl)pyridin-2-yl)carbamoyl)phenyl)-9,10-dihydro-4H-benzo[d]pyrazolo[1,5-a][1,3]diazepine-3-carboxamide] | > 10000 nM | – |
| 1.75 nM | NC(=O)c1c(-c2ccc(Oc3ccccc3)cc2)nn2c1Nc1ccc(C(=O)NC3CCN(CC4CCN(c5cc6c(cc5F)C(=O)N(C5CCC(=O)NC5=O)C6=O)CC4)CC3)cc1CC2 (stereo not shown) [Example A10, N^7-(1-((1-(2-(2,6-dioxopiperidin-3-yl)-6-fluoro-1,3-dioxoisoindolin-5-yl)piperidin-4-yl)methyl)piperidin-4-yl)-2-(4-phenoxyphenyl)-9,10-dihydro-4H-benzo[d]pyrazolo[1,5-a][1,3]diazepine-3,7-dicarboxamide] | 121 nM | – |
| 2.11 nM | Cc1c(C(=O)Nc2cscn2)ccc(-c2nn3c(c2C(N)=O)Nc2ccc(N4CCN(CC5CN(c6ccc(N7CCC(=O)NC7=O)cc6)C5)CC4)cc2CC3)c1F [Example B97, 7-(4-((1-(4-(2,4-dioxotetrahydropyrimidin-1(2H)-yl)phenyl)azetidin-3-yl)methyl)piperazin-1-yl)-2-(2-fluoro-3-methyl-4-(thiazol-4-ylcarbamoyl)phenyl)-9,10-dihydro-4H-benzo[d]pyrazolo[1,5-a][1,3]diazepine-3-carboxamide] | > 10000 nM | – |
| 1.58 nM | NC(=O)c1c(-c2ccc(Oc3ccccc3)cc2)nn2c1Nc1ccc(C3CCN(CC4CCN(c5ccc(N6CCC(=O)NC6=O)cc5)CC4)CC3)cc1CC2 [Example A30, 7-(1-((1-(4-(2,4-dioxotetrahydropyrimidin-1(2H)-yl)phenyl)piperidin-4-yl)methyl)piperidin-4-yl)-2-(4-phenoxyphenyl)-9,10-dihydro-4H-benzo[d]pyrazolo[1,5-a][1,3]diazepine-3-carboxamide] | 28.7 nM | – |
| 1.9 nM | Cc1c(C(=O)Nc2cnc3ccccc3n2)ccc(-c2nn3c(c2C(N)=O)Nc2ccc(N4CCN(CC5CCN(c6ccc(N7CCC(=O)NC7=O)cc6)CC5)CC4)cc2CC3)c1F [Example B47, 7-(4-((1-(4-(2,4-dioxotetrahydropyrimidin-1(2H)-yl)phenyl)piperidin-4-yl)methyl)piperazin-1-yl)-2-(2-fluoro-3-methyl-4-(quinoxalin-2-ylcarbamoyl)phenyl)-9,10-dihydro-4H-benzo[d]pyrazolo[1,5-a][1,3]diazepine-3-carboxamide] | > 10000 nM | – |
| 20.6 nM | NC(=O)c1c(-c2ccc(Oc3ccccc3)cc2)nn2c1Nc1ccc(NCC3CCN(c4ccc5c(c4)C(=O)N(C4CCC(=O)NC4=O)C5=O)CC3)cc1CC2 (stereo not shown) [Example A3, 7-(((1-(2-(2,6-dioxopiperidin-3-yl)-1,3-dioxoisoindolin-5-yl)piperidin-4-yl)methyl)amino)-2-(4-phenoxyphenyl)-9,10-dihydro-4H-benzo[d]pyrazolo[1,5-a][1,3]diazepine-3-carboxamide] | > 10000 nM | – |
| 0.52 nM | COc1ccc(C)cc1C(=O)NCc1ccc(-c2nn3c(c2C(N)=O)Nc2ccc(N4CCN(CC5CCN(c6ccc(N7CCC(=O)NC7=O)cc6)CC5)CC4)cc2CC3)cc1 [Example C2, 7-(4-((1-(4-(2,4-dioxotetrahydropyrimidin-1(2H)-yl)phenyl)piperidin-4-yl)methyl)piperazin-1-yl)-2-(4-((2-methoxy-5-methylbenzamido)methyl)phenyl)-9,10-dihydro-4H-benzo[d]pyrazolo[1,5-a][1,3]diazepine-3-carboxamide] | > 10000 nM | – |
| 12.4 nM | COc1cnccc1C(=O)NCc1ccc(-c2nn3c(c2C(N)=O)Nc2ccc(N4CCN(CC5CCN(c6ccc(N7CCC(=O)NC7=O)cc6)CC5)CC4)cc2CC3)cc1C [Example C37, 7-(4-((1-(4-(2,4-dioxotetrahydropyrimidin-1(2H)-yl)phenyl)piperidin-4-yl)methyl)piperazin-1-yl)-2-(4-((3-methoxyisonicotinamide)methyl)-3-methylphenyl)-9,10-dihydro-4H-benzo[d]pyrazolo[1,5-a][1,3]diazepine-3-carboxamide] | > 10000 nM | – |
| 1.35 nM | Cc1cccc(NC(=O)c2ccc(-c3nn4c(c3C(N)=O)Nc3ccc(N5CCN(C6CN(c7ccc(N8CCC(=O)NC8=O)cc7)C6)CC5)cc3CC4)c(F)c2C)n1 [Example B66, 7-(4-(1-(4-(2,4-dioxotetrahydropyrimidin-1(2H)-yl)phenyl)azetidin-3-yl)piperazin-1-yl)-2-(2-fluoro-3-methyl-4-((6-methylpyridin-2-yl)carbamoyl)phenyl)-9,10-dihydro-4H-benzo[d]pyrazolo[1,5-a][1,3]diazepine-3-carboxamide] | > 10000 nM | – |
| 4.89 nM | Cc1cccc(NC(=O)c2ccc(-c3nn4c(c3C(N)=O)Nc3ccc(N5CCN(CC6CCN(c7ccc(N8CCC(=O)NC8=O)cc7)CC6)CC5)cc3CC4)nc2C)n1 [Example B38, 7-(4-((1-(4-(2,4-dioxotetrahydropyrimidin-1(2H)-yl)phenyl)piperidin-4-yl)methyl)piperazin-1-yl)-2-(6-methyl-5-((6-methylpyridin-2-yl)carbamoyl)pyridin-2-yl)-9,10-dihydro-4H-benzo[d]pyrazolo[1,5-a][1,3]diazepine-3-carboxamide] | > 10000 nM | – |
| 2.76 nM | COc1ccccc1C(=O)N[C@H](C)c1ccc(-c2nn3c(c2C(N)=O)Nc2ccc(N4CCN(CC5CCN(c6ccc(N7CCC(=O)NC7=O)cc6)CC5)CC4)cc2CC3)cc1 [Example C14, (R)-7-(4-((1-(4-(2,4-dioxotetrahydropyrimidin-1(2H)-yl)phenyl)piperidin-4-yl)methyl)piperazin-1-yl)-2-(4-(1-(2-methoxybenzamido)ethyl)phenyl)-9,10-dihydro-4H-benzo[d]pyrazolo[1,5-a][1,3]diazepine-3-carboxamide] | > 10000 nM | – |
| 5.69 nM | Cc1cncc(NC(=O)c2ccc(-c3nn4c(c3C(N)=O)Nc3ccc(N5CCN(CC6CCN(c7ccc(N8CCC(=O)NC8=O)cc7)CC6)CC5)cc3CC4)c(F)c2C)n1 [Example B40, 7-(4-((1-(4-(2,4-dioxotetrahydropyrimidin-1(2H)-yl)phenyl)piperidin-4-yl)methyl)piperazin-1-yl)-2-(2-fluoro-3-methyl-4-((6-methylpyrazin-2-yl)carbamoyl)phenyl)-9,10-dihydro-4H-benzo[d]pyrazolo[1,5-a][1,3]diazepine-3-carboxamide] | > 10000 nM | – |
| 0.706 nM | Cc1c(C(=O)Nc2cn(C)cn2)ccc(-c2nn3c(c2C(N)=O)Nc2ccc(N4CCN(CCc5cccc6c5oc(=O)n6C5CCC(=O)NC5=O)CC4)cc2CC3)c1F (stereo not shown) [Example B90, 7-(4-(2-(3-(2,6-dioxopiperidin-3-yl)-2-oxo-2,3-dihydrobenzo[d]oxazol-7-yl)ethyl)piperazin-1-yl)-2-(2-fluoro-3-methyl-4-((1-methyl-1H-imidazol-4-yl)carbamoyl)phenyl)-9,10-dihydro-4H-benzo[d]pyrazolo[1,5-a][1,3]diazepine-3-carboxamide] | > 10000 nM | – |
| 3.42 nM | NC(=O)c1c(-c2ccc(Oc3ccccc3)cc2)nn2c1Nc1ccc(N3CCN(CC4CCN(c5ccc6c(c5)C(=O)N(C5CCC(=O)NC5=O)C6=O)CC4)CC3)cc1CC2 (stereo not shown) [Example A6, 7-(4-((1-(2-(2,6-dioxopiperidin-3-yl)-1,3-dioxoisoindolin-5-yl)piperidin-4-yl)methyl)piperazin-1-yl)-2-(4-phenoxyphenyl)-9,10-dihydro-4H-benzo[d]pyrazolo[1,5-a][1,3]diazepine-3-carboxamide] | 163 nM | – |
